Measured values taken from patent US20250066286A1, “COMPOSITIONS OF (Z)-ENDOXIFEN AND METHODS OF ENRICHMENT THEREOF” (Atossa Therapeutics, Inc., priority 2022, published 2025).

Experiments:
Assay type in all cases: physicochemical
[1] = Storage stability of polymorphic forms at room temperature in a sealed vial (XRPD time course); details: for XRPD change on storage: room temperature
Procedure: Form I samples were collected for XR-PD analysis following 0, 7, and 42 days of storage, the results of which are shown in FIG. 10.
The stability of polymorphic Form IV was evaluated over 7 days of storage at room temperature in a sealed vial. Portions of the Form IV samples were collected for XRPD analysis following 0 (Form IV), 3 (Form IV-3D3-storage), and 7 days (Form IV-7D3-storage) of storage, the results of which are shown in FIG. 14.
The stability of polymorphic Form IV was also evaluated following crystallization from a room temperature 2-propanol/THF 95/5 (v/v) solvent system containing 40 mg/ml (Z)-endoxifen. XPRD was collected immediately after recovery and following 15 days storage at room temperature in a sealed vial. FIG. 15 provides the resultant XRPD patterns following 15 days storage (Form IV-2PR/THF-15D-storage) and 0 days storage (Form IV-2PR/THF-0D-storage), as well as an XRPD spectrum of Form IV (Form IV) obtained from 2-propanol recrystallization.
Since the room temperature evaporation in acetone yielded a mixture of polymorphic Form I and Form IV XRPD patterns with a very intense unassigned signal at 16.1° 2θ, the sample was re-measured following 7 days storage in a sealed vial. From top to bottom, FIG. 16 provides XRPD patterns of the acetone-generated polymorphs following 7 (EVRT-ACT-7D-storage) and 0 days of storage (EVRT-ACT-0D-storage), a Form IV spectrum (Form IV), and a Form I (Form I) spectrum, respectively.
Form XVII was further assessed after 3 days storage in a sealed vial at room temperature.
Form XVIII was further reassessed by XRPD following 3 and 7 days storage at room temperature in a sealed vial. The data from these analyses are summarized in FIG. 24, which (from top to bottom) provides the sample following 7 days storage (Form XVIII-7D-storage), the sample following 3 days storage (Form XVIII-3D-storage), and the sample immediately following crystallization (Form XVIII).
Form XIX room temperature stability was evaluated with XRPD. XRPD of a Form XIX sample immediately following crystallization (Form XIX) and following 7 days of storage (Form XIX-7D-storage) are shown in FIG. 26.
The stability of polymorphic Form V was over 10 days of storage at room temperature in a sealed vial. XR-PD was performed following 0, 3, and 10 days storage.
To evaluate Form VI stability, XRPD spectra of a Form VI sample were collected following 0, 3, and 14 days of room temperature storage in a sealed vial. The resulting XRPD patterns of the sample following 0 (Form VI), 3 (Form VI-3D-storage), and 14 days storage (Form VI-14D-storage) are shown in FIG. 30.
The stability of polymorphic Form VII was evaluated over 7 days of storage at room temperature in a sealed vial. Portions of the Form VII samples were collected for XRPD analysis over 7 days of storage, the results of which are shown in FIG. 32.
Form VIII stability over 7 days storage in a sealed vial at room temperature was evaluated with XRPD.
The stability of Form IX generated by precipitation from an ethyl acetate/heptane solvent system (Form IX Recrystallization (1)) was evaluated over 7 days of storage at room temperature. Portions of the Form IX sample were collected following 0 and 7 days of storage in a sealed vial and analyzed by XRPD analysis to identify possible changes in the polymorph.
Form IX stability was separately characterized for crystals generated through the addition of (Z)-endoxifen saturated ethyl acetate to heptane (Form IX Recrystallization (2)), which yielded higher crystallinity Form IX than was afforded by heptane addition to (Z)-endoxifen saturated ethyl acetate.
Form IX stability was further evaluated for crystals generated by precipitation from an acetone/butyl methyl ether (acetone/BME) solvent/antisolvent mixture (Form IX Recrystallization (4)). Portions of the Form IX sample were collected following 0 and 5 days of storage in a sealed vial at room temperature and compared to reference XRPD patterns of Forms VII and IX. […]

[2] = Mechanical stability: grinding and kneading by ball milling (XRPD); details: for XRPD pattern after mechanical grinding: 10 minutes ball milling at 30 Hz; for XRPD pattern after kneading: 10 minutes ball milling at 30 Hz with catalytic 2-propanol (2 μl)
Procedure: Stability tests were performed on mixtures of Form I and Form IV; Form I and Form VII; and Form I, Form IV, and Form VII. In a first mechanical stability test, the polymorphs were analyzed by XRPD following 10 minutes of grinding by ball milling at 30 Hz. In a second mechanical stability test, the polymorphs were analyzed by XRPD following 10 minutes of kneading by ball milling at 30 Hz in the presence of a catalytic amount of 2-propanol (2 μl).

[3] = Stability at various temperatures and relative humidities, seven days (XRPD); details: 7 days
Procedure: The stabilities of the polymorphs were also assessed at various temperatures and relative humidities. These analyses were performed by storing 20 mg of polymorph samples for seven days at: (1) 25° C. and 100% relative humidity, (2) 40° C. and 75% relative humidity, (3) 25° C. and 60% relative humidity, and (4) at 60° C. and 75% relative humidity. XRPD was collected on the samples following these incubations and compared to XRPD of the samples prior to storage.

CC/C(=C(\c1ccc(O)cc1)c1ccc(OCCNC)cc1)c1ccccc1 [Form X, (Z)-endoxifen]
XRPD change on storage ([1]; 7 days, sealed vial): near complete conversion to Form XI

CC/C(=C(\c1ccc(O)cc1)c1ccc(OCCNC)cc1)c1ccccc1 [Form XV, (Z)-endoxifen]
Room temperature stability ([1]; duration not given): limited room temperature stabilities

CC/C(=C(\c1ccc(O)cc1)c1ccc(OCCNC)cc1)c1ccccc1 [Form VI, (Z)-endoxifen]
XRPD change on storage ([1]; 14 days, sealed vial): stable under ambient conditions

CC/C(=C(\c1ccc(O)cc1)c1ccc(OCCNC)cc1)c1ccccc1 [Form VIII, (Z)-endoxifen]
XRPD change on storage ([1]; 7 days, sealed vial): no significant difference

CC/C(=C(\c1ccc(O)cc1)c1ccc(OCCNC)cc1)c1ccccc1 [first mixture of Form I and Form VII, (Z)-endoxifen]
XRPD pattern after mechanical grinding [2]: amorphous (Z)-endoxifen with signals ascribable to Form I and Form VII

CC/C(=C(\c1ccc(O)cc1)c1ccc(OCCNC)cc1)c1ccccc1 [Form XII, (Z)-endoxifen]
XRPD change on storage ([1]; 2 days, sealed vial): stable under ambient conditions

CC/C(=C(\c1ccc(O)cc1)c1ccc(OCCNC)cc1)c1ccccc1 [Forms I and IV polymorphic mixture, (Z)-endoxifen]
XRPD change on storage ([1]; 7 days, sealed vial): No significant changes were detected

CC/C(=C(\c1ccc(O)cc1)c1ccc(OCCNC)cc1)c1ccccc1 [second mixture of Form I and Form VII, (Z)-endoxifen]
XRPD pattern after mechanical grinding [2]: Form I and Form VII with slightly lowered crystallinity

CC/C(=C(\c1ccc(O)cc1)c1ccc(OCCNC)cc1)c1ccccc1 [Form V, (Z)-endoxifen]
XRPD change on storage ([1]; 3 days, sealed vial): converted almost completely to Form VI
XRPD change on storage ([1]; 10 days, sealed vial): completely to Form VI

CC/C(=C(\c1ccc(O)cc1)c1ccc(OCCNC)cc1)c1ccccc1 [Form XIV, (Z)-endoxifen]
XRPD change on storage ([1]; 3 days, sealed vial): partial conversion to Forms I and VII
XRPD change on storage ([1]; 7 days, sealed vial): partial conversion to Forms I and VII

CC/C(=C(\c1ccc(O)cc1)c1ccc(OCCNC)cc1)c1ccccc1 [mixture of Form I, Form IV, and Form VII, (Z)-endoxifen]
XRPD pattern after mechanical grinding [2]: Form I with a slightly lowered degree of crystallinity
XRPD pattern after kneading [2]: Form I with a mild signal at 4.8° 20 ascribable to Form IV
XRPD pattern after storage ([3]; 25° C./60% RH): mixture of Form I, Form IV, and Form VII
XRPD pattern after storage ([3]; 60° C./75% RH): mixture of Form I and Form VII

CC/C(=C(\c1ccc(O)cc1)c1ccc(OCCNC)cc1)c1ccccc1 [mixture of Form I and Form IV, (Z)-endoxifen]
XRPD pattern after mechanical grinding [2]: Form I with traces of Form IV
XRPD pattern after kneading [2]: Form I with a signal at 4.8° 20 ascribable to Form IV
XRPD pattern after storage ([3]; 25° C./60% RH): mixture of Form I and Form IV
XRPD pattern after storage ([3]; 60° C./75% RH): XRPD pattern of Form I

CC/C(=C(\c1ccc(O)cc1)c1ccc(OCCNC)cc1)c1ccccc1 [Form XVII, (Z)-endoxifen]
XRPD change on storage ([1]; 3 days, sealed vial): complete conversion of Form XVII (Form XVII) into Form I

CC/C(=C(\c1ccc(O)cc1)c1ccc(OCCNC)cc1)c1ccccc1 [Form XI, (Z)-endoxifen]
XRPD change on storage ([1]; 18 days): stable under ambient conditions

CC/C(=C(\c1ccc(O)cc1)c1ccc(OCCNC)cc1)c1ccccc1 [Form XIX, (Z)-endoxifen]
XRPD change on storage ([1]; 7 days, sealed vial): stable under ambient conditions

CC/C(=C(\c1ccc(O)cc1)c1ccc(OCCNC)cc1)c1ccccc1 [mixture of Form XII and Form XIII, (Z)-endoxifen]
XRPD change on storage ([1]; 4 days, sealed vial): conversion of Form XIII to Form XII
XRPD change on storage ([1]; 5 days total, sealed vial): conversion to only Form XII

CC/C(=C(\c1ccc(O)cc1)c1ccc(OCCNC)cc1)c1ccccc1 [Form XVIII, (Z)-endoxifen]
XRPD change on storage ([1]; 7 days, sealed vial): partial amorphization
